US10221163B2 (priority 2015, dated 2019)
Where two headings read alike, the source gives them in different places.

Key:
IMP-1 = IMP-1 (Serratia marcescens, UniProt P52699); assay: biochemical; format: biochemical; conditions: fluorescence assay, CCF2-FA substrate, 2 pM enzyme, 2 hours at 25° C.; read-out: IMP-1 IC50
Method in brief: (§1)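 Inhibitor was mixed with the metallo-β-lactamase and CCF2-FA. After 2 hours at 25° C, fluorescence of the coumarin–fluorescein cephalosporin substrate was read. IC50 was calculated with a 4-parameter fit.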

NDM-1 = NDM-1 (Klebsiella pneumoniae, UniProt C7C422); assay: biochemical; format: biochemical; conditions: fluorescence assay, CCF2-FA substrate, 1 pM enzyme, 2 hours at 25° C.; read-out: NDM-1 IC50
NDM-1, sequence (C7C422 whole entry, looked up, species assumed): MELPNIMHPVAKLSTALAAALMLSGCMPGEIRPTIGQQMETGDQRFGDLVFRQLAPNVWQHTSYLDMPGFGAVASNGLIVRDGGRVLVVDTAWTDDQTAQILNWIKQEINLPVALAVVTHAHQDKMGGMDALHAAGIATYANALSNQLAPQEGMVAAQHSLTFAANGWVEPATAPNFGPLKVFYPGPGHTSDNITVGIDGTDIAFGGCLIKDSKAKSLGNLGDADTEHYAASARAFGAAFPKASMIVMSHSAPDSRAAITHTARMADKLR
Method in brief: as §1

VIM-1 = VIM-1 (Pseudomonas aeruginosa (strain ATCC 15692 / DSM 22644 / CIP 104116 / JCM 14847 / LMG 12228 / 1C / PRS 101 / PAO1), UniProt A0A0F7KYQ8); assay: biochemical; conditions: CCF2-FA substrate, 30 pM enzyme, 2 hours at 25° C.
Method in brief: as §1

[1] = system: Escherichia coli expressing NDM-1 (CLB30005, CLB30016); format: cell-based; conditions: with imipenem 1 μg/ml; 95% inhibition of bacterial growth
Method in brief: (§2)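 Colonies grown overnight on blood agar at 35° C were suspended in saline, diluted 1:100 into 1.1×CAMHB and dispensed. Imipenem was added to 1 μg/ml, then test compound. After 22 hours to 24 hours at 35° C, absorbance was recorded.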

[2] = system: Klebsiella pneumoniae expressing VIM-1 (IHMA599644); format: cell-based; conditions: with imipenem 1 μg/ml; 95% inhibition of bacterial growth
Method in brief: as §2

[3] = system: Serratia marcescens expressing IMP-1 (CL5741); format: cell-based; conditions: with imipenem 1 μg/ml; 95% inhibition of bacterial growth
Method in brief: as §2

[4] = system: Pseudomonas aeruginosa efflux+ (MB9798), IMP-1; format: cell-based; conditions: concentration restoring susceptibility to imipenem at 2 μg/mL in the presence of a class A, C, D serine β-lactamase inhibitor closely related to relebactam
Method in brief: (§3)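 Microbroth MIC tests in PAO1-background strains with fixed imipenem and/or ceftazidime, usually at the CLSI breakpoint, plus fixed class A/C β-lactamase inhibitor against AmpC. MBL inhibitor titrated; concentration restoring susceptibility recorded and compared as fold difference between efflux+ MB9798 and efflux− MB9799.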

[5] = system: Pseudomonas aeruginosa efflux− (MB9799), IMP-1; format: cell-based; conditions: concentration restoring susceptibility to imipenem at 2 μg/mL in the presence of a class A, C, D serine β-lactamase inhibitor closely related to relebactam
Method in brief: as §3

[6] = system: Pseudomonas aeruginosa MB9798 vs MB9799; conditions: ratio MITC95 PA_9798/MITC95 PA_9799
Method in brief: as §3

[7] = fluorescence assay, read-out: VIM-1 IC50

IMP-1, sequence (P52699 whole entry, looked up, species assumed): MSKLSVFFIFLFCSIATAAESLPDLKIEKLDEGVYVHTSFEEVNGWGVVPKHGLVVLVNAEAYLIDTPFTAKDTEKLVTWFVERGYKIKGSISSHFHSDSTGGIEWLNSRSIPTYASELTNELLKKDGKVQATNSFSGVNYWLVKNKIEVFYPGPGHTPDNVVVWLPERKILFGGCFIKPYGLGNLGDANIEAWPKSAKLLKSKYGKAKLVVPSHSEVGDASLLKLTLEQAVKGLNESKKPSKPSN

| SMILES | IC50 (IMP-1) | IC50 (NDM-1) | IC50 (VIM-1; VIM-1 IC50, fluorescence assay) | Escherichia coli expressing NDM-1 (CLB30016) MITC95 [1] | Klebsiella pneumoniae expressing VIM-1 (IHMA599644) MITC95 [2] | Serratia marcescens expressing IMP-1 (CL5741) MITC95 [3] | P. aeruginosa expressing IMP-1, efflux + (MB9798) MITC95 [4] | P. aeruginosa expressing IMP-1, efflux − (MB9799) MITC95 [5] | Efflux ratio [6] | IC50 (VIM-1; [7]) |
| --- | --- | --- | --- | --- | --- | --- | --- | --- | --- | --- |
| Nc1nc2c(-c3ccc(S(=O)(=O)NC4CCNCC4)c(S(N)(=O)=O)c3-c3nnn[nH]3)cccc2s1 [Example 32, 4-(2-amino-1,3-benzothiazol-4-yl)-N1-piperidin-4-yl-3-(1H-tetrazol-5-yl)benzene-1,2-disulfonamide] | 340 pM | 69 pM | 296 pM | 6.25 µM | 3.125 µM | 1.563 µM | 0.7813 µM | 1.563 µM | 0.50 | – |
| COc1ccnc(CNS(=O)(=O)c2ccc(-c3cccc4sc(N)nc34)c(-c3nnn[nH]3)c2S(N)(=O)=O)n1 [Example 34, 4-(2-amino-1,3-benzothiazol-4-yl)-N1-[(4-methoxypyrimidin-2-yl)methyl]-3-(1H-tetrazol-5-yl)benzene-1,2-disulfonamide] | 429 pM | 81.6 pM | – | 25 µM | 50 µM | 6.25 µM | 25 µM | 6.25 µM | 4.00 | 329 pM |
| Nc1nc2c(-c3ccc(S(=O)(=O)NC4CCc5nccn5C4)c(S(N)(=O)=O)c3-c3nnn[nH]3)cccc2s1 (stereo not drawn) [Example 35, 4-(2-amino-1,3-benzothiazol-4-yl)-N1-(5,6,7,8-tetrahydroimidazo[1,2-a]pyridin-6-yl)-3-(1H-tetrazol-5-yl)benzene-1,2-disulfonamide] | 349 pM | 50.9 pM | – | 12.5 µM | 12.5 µM | 3.125 µM | 6.25 µM | 3.125 µM | 2.00 | 256 pM |
| CN(C)C(=O)CNS(=O)(=O)c1ccc(-c2cccc3sc(N)nc23)c(-c2nnn[nH]2)c1S(N)(=O)=O [Example 36, N^2-{[4-(2-amino-1,3-benzothiazol-4-yl)-2-sulfamoyl-3-(1H-tetrazol-5-yl)phenyl]sulfonyl}-N,N-dimethylglycinamide] | 247 pM | 36.9 pM | 166 pM | 25 µM | 12.5 µM | 3.125 µM | 3.125 µM | 3.125 µM | 1.00 | – |
| Nc1nc2c(-c3ccc(S(=O)(=O)NCC4(CO)CC4)c(S(N)(=O)=O)c3-c3nnn[nH]3)cccc2s1 [Example 37, 4-(2-amino-1,3-benzothiazol-4-yl)-N1-{[1-(hydroxymethyl)cyclopropyl]methyl}-3-(1H-tetrazol-5-yl)benzene-1,2-disulfonamide] | 287 pM | 7.69 pM | 198 pM | 12.5 µM | 12.5 µM | 3.125 µM | 6.25 µM | 6.25 µM | 1.00 | – |
| CN1CC2(CCN(S(=O)(=O)c3ccc(-c4cccc5sc(N)nc45)c(-c4nnn[nH]4)c3S(N)(=O)=O)C2)C1 [Example 38, 3-(2-amino-1,3-benzothiazol-4-yl)-6-[(2-methyl-2,6-diazaspiro[3.4]oct-6-yl)sulfonyl]-2-(1H-tetrazol-5-yl)benzenesulfonamide] | 1430 pM | 424 pM | 2520 pM | 12.5 µM | 12.5 µM | 3.125 µM | 3.125 µM | 3.125 µM | 1.00 | – |
| CN(C)C1CN(S(=O)(=O)c2ccc(-c3cccc4sc(N)nc34)c(-c3nnn[nH]3)c2S(N)(=O)=O)C1 [Example 39, 3-(2-amino-1,3-benzothiazol-4-yl)-6-{[3-(dimethylamino)azetidin-1-yl]sulfonyl}-2-(1H-tetrazol-5-yl)benzenesulfonamide] | 878 pM | 506 pM | – | 12.5 µM | 12.5 µM | 6.25 µM | 50 µM | 3.125 µM | 16.00 | 908 pM |
| Nc1nc2c(-c3ccc(S(=O)(=O)N4CC5CC4CS5(=O)=O)c(S(N)(=O)=O)c3-c3nnn[nH]3)cccc2s1 (stereo not drawn) [Example 40, 3-(2-amino-1,3-benzothiazol-4-yl)-6-[(2,2-dioxido-2-thia-5-azabicyclo[2.2.1]hept-5-yl)sulfonyl]-2-(1H-tetrazol-5-yl)benzenesulfonamide] | 1860 pM | 1700 pM | 2660 pM | 25 µM | 25 µM | 6.25 µM | 50 µM | 3.125 µM | 16.00 | – |
| CN(C1CCS(=O)(=O)C1)S(=O)(=O)c1ccc(-c2cccc3sc(N)nc23)c(-c2nnn[nH]2)c1S(N)(=O)=O (stereo not drawn) [Example 41, 4-(2-amino-1,3-benzothiazol-4-yl)-N^1-(1,1-dioxidotetrahydrothiophen-3-yl)-N~1~-methyl-3-(1H-tetrazol-5-yl)benzene-1,2-disulfonamide] | 810 pM | 938 pM | – | 25 µM | 25 µM | 6.25 µM | 25 µM | 3.125 µM | 8.00 | 1750 pM |
| Nc1nc2c(-c3ccc(S(=O)(=O)N4CC(F)(F)C4)c(S(N)(=O)=O)c3-c3nnn[nH]3)cccc2s1 [Example 42, 3-(2-amino-1,3-benzothiazol-4-yl)-6-[(3,3-difluoroazetidin-1-yl)sulfonyl]-2-(1H-tetrazol-5-yl)benzenesulfonamide] | 700 pM | 697 pM | 670 pM | 12.5 µM | 12.5 µM | 3.125 µM | 25 µM | 1.563 µM | 15.99 | – |
